# Results published in ChEMBL document CHEMBL1201862, “PubChem BioAssay data set” (2004).
#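 Results reflect a 48-hour exposure of cells in 96-well plates to compound at five concentrations. Abbreviation: GI50, concentration required for 50% inhibition of growth.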 Calls of active or inactive are those of the source. No stated cut-off is given here; in the data, active = GI50 up to about 1.1 µM and inactive = higher. Non-standard residues stand in square brackets, D forms with d. Residues, ends and D or L forms follow the SMILES beside them. *: point of attachment. Ac5c = NC1(C(=O)O)CCCC1; Boc = CC(C)(C)OC(=O)*; tBu = CC(C)(C)*
# Columns and labels:
# Test in all cases: inhibition of tumour cell growth, NCI panel, 48 h
# A549 = system: A549
# TK-10 = system: TK-10
# LOX IMVI = system: LOX IMVI
# OVCAR-8 = system: OVCAR-8
# CCRF-CEM = system: CCRF-CEM
# UO-31 = system: UO-31
# CAKI-1 = system: CAKI-1
# HCT-15 = system: HCT-15
# SW-620 = system: SW-620
# ACHN = system: ACHN
# MDA-MB-435 = system: MDA-MB-435
# OVCAR-4 = system: OVCAR-4
# SK-MEL-28 = system: SK-MEL-28
# MOLT-4 = system: MOLT-4
# HCT-116 = system: HCT-116
# 786-0 = system: 786-0
# SK-OV-3 = system: SK-OV-3
# NCI/ADR-RES = system: NCI/ADR-RES
# IGROV-1 = system: IGROV-1
# SR = system: SR
SMILES,GI50 (A549),GI50 (TK-10),GI50 (LOX IMVI),GI50 (OVCAR-8),GI50 (CCRF-CEM),GI50 (UO-31),GI50 (CAKI-1),GI50 (HCT-15) [µM],GI50 (SW-620),GI50 (ACHN),GI50 (MDA-MB-435),GI50 (OVCAR-4),GI50 (SK-MEL-28),GI50 (MOLT-4),GI50 (HCT-116),GI50 (786-0),GI50 (SK-OV-3),GI50 (NCI/ADR-RES),GI50 (IGROV-1),GI50 (SR)
CN(C)CCCn1c(Cc2ccccc2)nc2cc(C(F)(F)F)ccc21,14.7 µM (inactive),28.8 µM (inactive),18 µM (inactive),39.7 µM (inactive),19.4 µM (inactive),1.91 µM (inactive),17.7 µM (inactive),24.8,26.1 µM (inactive),62.8 µM (inactive),15.9 µM (inactive),18.6 µM (inactive),19.1 µM (inactive),19.8 µM (inactive),18 µM (inactive),19.1 µM (inactive),23.5 µM (inactive),65.6 µM (inactive),30.2 µM (inactive),–
CCOC(=O)c1sc2c(c1OC(=O)c1ccc(Cl)cc1Cl)c(=O)n(-c1ccccc1)c(=S)n2-c1ccccc1,8.55 µM (inactive),17 µM (inactive),20.8 µM (inactive),6.11 µM (inactive),3.27 µM (inactive),13.4 µM (inactive),17.9 µM (inactive),5.08,9.64 µM (inactive),4.85 µM (inactive),> 51.2 µM (inactive),40.6 µM (inactive),> 76.4 µM (inactive),3.17 µM (inactive),8.13 µM (inactive),25.6 µM (inactive),5.42 µM (inactive),9.66 µM (inactive),4.06 µM (inactive),–
Cc1nc2c(Cl)cc(Cl)cc2c2c1CCO2,> 100 µM (inactive),> 100 µM (inactive),> 100 µM (inactive),> 100 µM (inactive),48.4 µM (inactive),67 µM (inactive),23.3 µM (inactive),> 100,> 100 µM (inactive),> 100 µM (inactive),> 100 µM (inactive),> 100 µM (inactive),> 100 µM (inactive),75.3 µM (inactive),> 100 µM (inactive),> 100 µM (inactive),–,> 100 µM (inactive),> 100 µM (inactive),> 100 µM (inactive)
C=CCN(c1cc(OC)c2[nH]c(C(=O)OCC)c(C)c2c1[N+](=O)[O-])S(C)(=O)=O,22 µM (inactive),54.1 µM (inactive),19.3 µM (inactive),28.6 µM (inactive),26.3 µM (inactive),21.5 µM (inactive),34 µM (inactive),25.6,34.3 µM (inactive),26.1 µM (inactive),24.7 µM (inactive),32.4 µM (inactive),43.2 µM (inactive),12.6 µM (inactive),18.2 µM (inactive),19 µM (inactive),36.3 µM (inactive),23.6 µM (inactive),33.7 µM (inactive),–
CC(OC(C)(C)C)C(NC(=O)C(CCCCNC(=O)OC(C)(C)C)NC(=O)C(Cc1c[nH]c2ccccc12)NC(=O)C(N)Cc1ccccc1)C(=O)NC(Cc1ccccc1)C(=O)NC1(C(=O)O)CCCC1 (stereo not given) (H-FWK(Boc)T(tBu)F[Ac5c]-OH; configuration not given here),> 100 µM (inactive),> 100 µM (inactive),> 100 µM (inactive),> 100 µM (inactive),> 100 µM (inactive),> 100 µM (inactive),> 100 µM (inactive),> 100,> 100 µM (inactive),> 100 µM (inactive),> 100 µM (inactive),> 100 µM (inactive),> 100 µM (inactive),> 100 µM (inactive),> 100 µM (inactive),> 100 µM (inactive),> 100 µM (inactive),> 100 µM (inactive),> 100 µM (inactive),–
